Reference: patent US12714711B2, “Salts of neuroceuticals and uses thereof” (priority 2020, dated 2026)
“Also recorded” adds a separate entry of the source. Like-named read-outs stand apart in the source and are kept apart here.

Assays:
[1] = Water solubility at 25° C.; conditions: 25° C.
MK-801 treated mice = test: Open field test, MK-801 induced hyper-locomotion; conditions: for Recovery rate (%): MK801-treated mice;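 for all read-outs here: adult male C57BL/6J mice, locomotion counted as total photobeam breaks over 60 minutes in an open field photobeam activity system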
Description: All mice were tested with open field task.
In this study, the mice were placed in a Plexiglas cage (37.5 cm×21.5 cm×18 cm) under 50-65 lux light intensity. Their spontaneous locomotor activities were measured for 60 minutes using the Photobeam Activity System (PAS)-open field (San Diego Instruments, San Diego, Calif., USA). The total number of photo beam breaks of each mouse was measured as an index of locomotor activity.
The schizophrenia-like behavior, MK801-induced hyperactivity, were tested by open field task.
All mice were tested in an open field task.
The schizophrenia-like behavior, NMDA-hypofunction-induced hyperactivity, were tested by open field task.
The amount of paliperidone administered to Groups 3 and 4 was equal. The schizophrenia-like behavior, MK801-induced hyperactivity, were tested by open field task.
The amount of paliperidone administered to Groups 3 and 4 was equal. The schizophrenia-like behavior, NMDA-hypofunction-induced hyperactivity, were tested by open field task.

[2] = Stress study at 40° C./75% relative humidity in a closed system, HPLC analysis; conditions: 40° C./75% RH, 30 days, in the presence of free benzoic acid
[3] = fasting glucose
Description: The testing compounds were administered to mice either through intraperitoneal (i.p.) injection or oral gavage before analyzing blood glucose levels.
For the acute study, two cohorts of mice were used.
For repeated-dose study, mice were randomly assigned into five groups as listed below. • Group 1: Vehicle control • Group 2: Clz (3 mg/kg) • Group 3: Clz:NA 1:1 salt (4.13 mg/kg) • Group 4: Clz (10 mg/kg) • Group 5: Clz:NA 1:1 salt (13.77 mg/kg)
The night before blood glucose levels were measured, the mice were fasted. Blood glucose levels were measured with a portable glucose meter (Contour® Plus, Bayer AG, Leverkusen, Germany) After waiting for 60 min, the treatments indicated above were administered. FIG. 75 illustrates the experimental design of this study.
Two cohorts of mice were used in this study. In cohort 1, mice were randomly assigned into the five groups listed below: • Group 1: Vehicle control • Group 2: NA (3.94 mg/kg) • Group 3: Olz (10 mg/kg) • Group 4: Olz (10 mg/kg)+NA (3.94 mg/kg) • Group 5: Olz:NA 1:1 salt (13.94 mg/kg)
Dosing occurred 60 min prior to measuring blood glucose levels.
In cohort 2, mice were randomly assigned into the five groups listed below: • Group 1: Vehicle control • Group 2: Olz (5 mg/kg) • Group 3: Olz:NA 1:1 salt (6.97 mg/kg) • Group 4: Olz (10 mg/kg) • Group 5: Olz:NA 1:1 salt (13.94 mg/kg)
The night before the glucose tolerance test, the mice fasted. Blood glucose levels were measured in whole blood that was collected from the mouse's tail vein. Glucose levels were measured with a portable glucose meter (Contour® Plus, Bayer AG, Leverkusen, Germany), with the measurement occurring 60 min after the mice were dosed with the treatments indicated above Immediately following the glucose measurement, all mice were subjected to a glucose tolerance test, which involved an intraperitoneal challenge injection of 1 g/kg of glucose, followed by measuring blood glucose levels at 0, 30, 60 and 120 minutes.

[4] = mice
Description: For the acute study, mice were randomly assigned into one of the five groups listed below. • Group 1: Vehicle control • Group 2: NA (3.77 mg/kg) • Group 3: Clz (10 mg/kg) • Group 4: Clz (10 mg/kg)+NA (3.77 mg/kg) • Group 5: Clz:NA 1:1 salt (13.77 mg/kg)
For the repeated dose study, two cohorts of mice were used. In cohort 1, mice were randomly assigned into one of the three groups listed below. • Group 1: Vehicle control • Group 2: Clz (10 mg/kg) • Group 3: Clz:NA 1:1 salt (13.77 mg/kg)
In cohort 2, the mice were randomly assigned into one of the three groups listed below. • Group 1: Vehicle control • Group 2: Clz (3 mg/kg) • Group 3: Clz:NA 1:1 salt (4.13 mg/kg)
To assess glucose tolerance, mice were fasted overnight on day 18 (for cohort 1) and on day 35 (for cohort 2), and their blood glucose response to i.p. administration of glucose (2 g/kg) was determined. Blood glucose levels were assessed in the whole blood collected from the tail vein, 60 min after drug administration Immediately following this glucose measurement, all mice were subjected to a glucose tolerance test by receiving an intraperitoneal challenge injection of 2 g/kg of glucose, and blood glucose levels were measured at 0, 30, 60 and 120 minutes.
Mice used in this study were randomly assigned into one of the six following groups: • Group 1: Vehicle control • Group 2: Clz (10 mg/kg) • Group 3: Clz (10 mg/kg)+enriched TA (22.5 mg/kg) • Group 4: Clz (10 mg/kg)+enriched TA (11.3 mg/kg) • Group 5: Clz:enriched TA 2:1 salt (32.5 mg/kg) • Group 6: Clz:enriched TA 4:1 salt (21.3 mg/kg)
One day before the glucose tolerance test, the mice fasted overnight and the blood glucose levels were measured in whole blood collected from the tail vein. Glucose levels were measured using a portable glucose meter (Contour® Plus, Bayer AG, Leverkusen, Germany) 60 min after they were acutely administered with the treatments indicated above Immediately following this glucose measurement, all mice were subjected to a glucose tolerance test by receiving an intraperitoneal challenge injection of 2 g/kg of glucose. Blood glucose levels were measured at 30, 60 and 120 minutes.
Two cohorts of mice were used in this study. […]

Structure (SMILES)	water solubility [1] [µg/mL]	Recovery rate (%) (MK-801 treated mice; dosage of clozapine 1 mg/kg (benzoic acid salt study))	Degradation during the stress study (HPLC before vs after) [2]	Rate of reduce olanzapine-induced hyperglycemia (%) ([3]; acute i.p., dosage of olanzapine 5 mg/kg)	Rate of reduce olanzapine-induced hyperglycemia (%) ([3]; acute i.p., dosage of olanzapine 10 mg/kg)	Rate of reduce olanzapine-induced hyperglycemia (%) ([3]; acute oral, dosage of olanzapine 10 mg/kg)	blood glucose levels during glucose tolerance test compared to vehicle ([4]; single i.p. dose, olanzapine 5 mg/kg or salt 6.97 mg/kg, glucose 1 g/kg i.p.)	blood glucose levels during glucose tolerance test compared to vehicle ([4]; single i.p. dose, olanzapine 10 mg/kg or salt 13.94 mg/kg, glucose 1 g/kg i.p.)	blood glucose levels during glucose tolerance test compared to vehicle ([4]; single oral dose, olanzapine 10 mg/kg, NA 3.94 mg/kg, mixture, or salt 13.94 mg/kg)	Recovery rate (%) (MK-801 treated mice; dosage of olanzapine 0.1 mg/kg)	locomotor activity in MK-801 treated mice (MK-801 treated mice; oral olanzapine 0.1 mg/kg or nicotinic acid salt 0.14 mg/kg, MK-801 0.2 mg/kg i.p.)
CN1CCN(C2=Nc3cc(Cl)ccc3Nc3ccccc32)CC1.O=C(O)c1ccccc1 [clozapine:benzoic acid 1:1 salt]	1580	85.8	did not degrade; also recorded: more stable than clozapine	–	–	–	–	–	–	–	–
Cc1cc2c(s1)Nc1ccccc1N=C2N1CCN(C)CC1.O=C(O)c1cccnc1 [olanzapine:nicotinic acid 1:1 salt]	–	–	–	57.6	38.4	50.5	significantly higher than vehicle control group at 120 min after glucose challenge	significantly higher than vehicle control group at 120 min after glucose challenge and remained lower than the olanzapine (10 mg/kg) group at all time points	high glucose levels only after 60 mins, before returning to normal glucose levels 120 min post glucose challenge	47.9	significant decrease in MK-801-induced hyper-locomotion
